Structures can show the parent of a compound that is named as a salt.
Tests used:
murine ASMC (CD47 null) = assay: Murine ASMC proliferation; format: cell-based, mouse; settings: CD47 null MASMC
Description: (§1) Murine ASMC were obtained from aortic segments harvested sterilely from C57B1/6 CD47 null or CD36 null mice as described (Ray et al., Methods Cell Sci 23:185-188, 2001) and cultured in SM-GM (Cambrex)+20% FCS. In the case of CD36 null cells, culture flasks were pre-coated with 1% gelatin prior to cell plating. Wild type C57B1/6 ASMC cultures were prepared as previously described (Isenberg et al., Matrix Biol 24:110-123, 2005). Cell culture purity was determined by immunohistochemistry staining for α-smooth muscle actin. Cells were used within passage 1 to 4 to minimize overgrowth of other cell types.
Proliferation of vascular cells was measured with a non-radioactive colorimetric assay (CellTiter 96, Promega, Madison, Wis.). Briefly, to each well of a 96-well culture plate (Nunc, Denmark) 5×10^3 cells were suspended in 100 μl of culture medium with indicated treatments and incubated for 72 hours at 37° C. in a 5% CO2 atmosphere. Following incubation 20 μl of tetrazolium compound/solubilization agent was added and incubation continued for 4 hours under the same conditions. The plate was then read on a MR580 Microelisa Auto Reader (Dynatech) at a wavelength of 490 nm. Appropriate zero time controls were run for all assays and the optical density readings obtained then subtracted from those obtained at 72 hours.

[1] = test system: murine ASMC (WT, CD36 null, CD47 null); assay: Intracellular cGMP in murine ASMC; format: cell-based, mouse; settings: WT MASMC
Description: as §1
HUVEC (10^4 cells/well) grown overnight in 96-well culture plates containing full growth medium with 2% FCS and weaned in growth medium without additives and 1% FCS over 24 hrs before treatment with NO donors and other agents in SM-GM without additives+0.1% BSA. Intracellular cGMP levels were determined according to the manufacturer's instructions using an enzyme immunoassay kit (Amersham Biosciences). In other experiments ASMC from wild type and CD36 or CD47 null mice were plated onto 96-well culture plates and incubated overnight in full growth medium. They were then weaned off serum as described to SM-GM+0.1% BSA and treated with NO donor and other agents as indicated. Intracellular cyclic nucleotides were determined via immunoassay.

human platelets [2] = assay: Thrombin-induced human platelet aggregation; format: cell-based; settings: for NO delay of thrombin-induced platelet aggregation: DEA/NO 10 μM
Outline: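 Washed human platelets in Tyrode's buffer pH 7.4 (2×10^5/μl) are stirred at 1200 rpm and 37 °C, and optical aggregation is followed for 5 min; under static conditions, A400 is tracked for 5 min instead. TSP1 agents or 1 μM peptide C6d are pre-incubated for 15 min before thrombin ± DEA/NO (10 μM).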

human platelets [3] = assay: cGMP in human platelets; format: cell-based; settings: washed human platelets in Tyrode's buffer
Description: Fresh human platelets at 2×10^5 platelets/μl in Tyrode's buffer or PRP were pre-incubated with the indicated agents for 15 minutes and then challenged with DEA/NO for the indicated time interval at room temperature and total cGMP determined via immunoassay (Amersham, GE Healthcare, Buckinghamshire, UK). Murine WT and TSP1-null platelets were treated with DEA/NO and cGMP flux measured.

[4] = test system: blood pressure and pulse in mice; assay: Blood pressure and pulse measurements (tail cuff); format: in vivo, mouse; settings: for mean pulse: after i.p. challenge; for blood pressure response: i.p.
Description: Mean systolic, diastolic and arterial blood pressure (BP) and mean pulse was measured in age and sex matched mice using a computerized tail cuff system (Hatteras Systems, MC4000 Blood Pressure Analysis System, Cary, N.C.). The mice were allowed to acclimate to the apparatus for 5 min prior to the start of measurement. Each animal underwent a cycle of 10 preliminary and 50 experimental pressures measurements for data acquisition and data calculation. Animals were acclimated to the measuring system and protocol for 4 days with treatment with data acquisition being performed on the 5th day. Pressures recordings were performed at the same time each day. Data was accepted if the mouse had valid readings for at least 20 consecutive pulse beats. All studies were performed at the same hour each day.
Respirations were monitored continuously monitored by direct observation of the animal. Body core temperature was measured via rectal probe. Temperature control was performed using a water-circulating warming surface and heating lamp. Following a 15 minute period of stabilization mean systolic, diastolic and arterial blood pressure and mean pulse measurements were determined.

[5] = test system: cutaneous perfusion in mice; format: in vivo, mouse
Description: Skin blood flow was measured using laser Doppler imaging (MoorLD1-2λ, Moor Instruments, Devon, England). Briefly, animals were placed in a prone position on a heating pad, and anesthesia was provided by 2% inhalation isoflurane in a 50:50 mixture of oxygen to room air. Core temperature was monitored by rectal probe and was further controlled with a heat lamp. The hair of the dorsum of the animals was clipped and depilated with Nare™ and a template with a 1 cm^2 area used to trace a region of interest (ROI). After equilibration to the experimental set-up analysis of cutaneous blood flow was obtained. The following instrument settings were used: override distance 21 cm; scan time 4 msec/pixel. Results are expressed as the change percent control from baseline of the ROI.

human platelets [6] = assay: Human platelet adhesion assay; format: cell-based; settings: fibrinogen vs collagen, 10 μM
Description: Bacteriological Petri dishes (35×10 mm, Becton Dickinson Labware) were pre-coated with collagen (3 μg/ml) or fibrinogen (15 μg/mL) overnight. Following aspiration of non-adherent matrix, dishes were blocked with 1% BSA. Fresh platelets were washed and suspended in Tyrode's buffer and allowed to adhere for 30 minutes. Plates were washed with PBS, fixed with 0.5% glutaraldehyde and stained with 0.02% toluidine blue. Adherent platelets were counted microscopically. In some experiments platelets were pre-incubated with the Rap1 geranylgeranyltransferase inhibitor GGTI-298 (10 μM) for 30 minutes prior to initiating adhesion.

Rap1 = Rap1 pulldown assay in platelets; format: cell-based, human; settings: thrombin
Description: Platelets were diluted to 5×10^8 platelets/mL in Tyrode's buffer and treated with various reagents for the indicated times. Immediately following treatment, platelets were pelleted at 13,000 g for 30 seconds at 4° C. and resuspended in ice-cold lysis buffer containing 20 mM HEPES (pH 7.5), 100 mM NaCl, 10 mM EGTA, 20 mM MgCl2, 8 mM α-glycerophosphate, 1% Triton X-100, 1 mM phenylmethylsulfonylfluoride, 40 mM NaF, 1 mM Na3VO4, 10 μg/mL aprotinin, and 10 μg/mL leupeptin. Lysates were centrifuged at 13,000 g for 5 minutes at 4° C. and the supernatants were incubated for 15 minutes on a tumbler at 4° C. with glutathione Sepharose 4B beads (Amersham) prebound with a GST-Ral GDS RBD fusion protein (kind gift of J. Silvio Gutkind, NIH, Bethesda, Md.). Bead complexes were washed by centrifugation at 6,000 g for 30 seconds at 4° C. followed by resuspension in 0.5 mL lysis buffer; 2 washes were performed for each sample. After the second wash, beads were resuspended in an equal volume of 2×SDS sample buffer and stored at −20° C. For Western analysis, bead-bound proteins in sample buffer were boiled for 10 minutes and subjected to electrophoresis on NuPAGE 10% Bis-Tris gels (Invitrogen, Carlsbad, Calif.), transferred to Immobilon-P PVDF membranes (Millipore, Billerica, Mass.), and blotted with rabbit polyclonal anti-Rapt (sc-65; Santa Cruz Biotechnology, Santa Cruz, Calif.).

[7] = test system: skeletal muscle blood oxygenation in mice; assay: BOLD MRI of hindlimb muscle after NO challenge; format: in vivo, mouse; settings: for magnitude of increased BOLD MRI signal: DEA/NO 100 nmol/g intrarectal
Description: MRI images were acquired using a Bruker Biospin 4.7 T scanner and isoflurane anesthesia. Muscle tissue scanned was at rest, so alterations in oxygenation reflected changes in perfusion rather than in oxygen consumption (Krishna et al., Ilar J 42:209-218, 2001; Watterson et al., Cell Signal 17:289-298, 2005). MR measurements were started after the mouse's body temperature reached 37° C. Prior to the experiments, gradient echo based T1 sequence was used to determine the target slice location. A series of T2* weighted gradient echo blood oxygenation level dependent (BOLD) image data sets at transverse to the midpoint of the femur were repeatedly acquired for 30 min to monitor temporal changes in blood oxygenation and blood flow. DEA/NO (100 nmol/g body weight) was injected with saline via the rectal cannula 5.0 min after starting the scan. Imaging parameters used were: TR=450 ms, Flip angle=45, Nex=1, slice thickness=2 mm, matrix size=64×64, total imaging time for the series was 29 min.

cGK-I = molecular target: T1, cGK-I (Homo sapiens, UniProt Q13976); assay: cGK in vitro kinase assay of platelet lysates; format: biochemical; settings: activation via sGC using DEA/NO in intact platelets
T1 construct: endogenous in cells; host or cells: washed human platelets, treated intact, then lysed
T1 sequence (Q13976 1-686 isoform Q13976-2): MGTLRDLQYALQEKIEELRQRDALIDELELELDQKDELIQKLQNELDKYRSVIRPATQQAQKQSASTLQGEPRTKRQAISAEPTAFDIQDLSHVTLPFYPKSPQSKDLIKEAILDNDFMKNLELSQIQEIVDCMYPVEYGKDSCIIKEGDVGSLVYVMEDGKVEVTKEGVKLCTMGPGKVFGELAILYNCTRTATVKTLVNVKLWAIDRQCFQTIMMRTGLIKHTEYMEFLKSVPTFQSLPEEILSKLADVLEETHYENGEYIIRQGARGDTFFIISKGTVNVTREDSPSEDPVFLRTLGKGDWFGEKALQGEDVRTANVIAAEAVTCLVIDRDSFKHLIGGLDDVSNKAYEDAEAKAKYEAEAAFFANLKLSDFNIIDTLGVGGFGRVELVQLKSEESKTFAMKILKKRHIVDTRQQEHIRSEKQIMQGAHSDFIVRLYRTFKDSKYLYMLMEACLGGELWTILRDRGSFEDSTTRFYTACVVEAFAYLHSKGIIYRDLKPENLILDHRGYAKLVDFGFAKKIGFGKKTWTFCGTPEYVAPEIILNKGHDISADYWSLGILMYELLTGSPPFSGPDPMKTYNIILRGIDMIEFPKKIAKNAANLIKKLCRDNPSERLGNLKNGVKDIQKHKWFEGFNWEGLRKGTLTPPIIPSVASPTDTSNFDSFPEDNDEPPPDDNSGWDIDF
Description: Platelets were washed as described above and resuspended in Tyrode's buffer (3×10^8 platelets/mL). Platelets were preincubated with TSP1 (2.2 nM) or Rp-8-pCPT-cGMP for 15 minutes prior to treatment with 8-Br-cGMP (100 μM) or NO (DEA/NO 10 μM) for 2 minutes. Treatment was stopped by placing the platelets on ice. Immediately following treatment, platelets were pelleted by centrifugation at 13,000×g at 4° C. for 15 seconds and resuspended in a lysis buffer containing 10 mM HEPES (pH 7.4), 1 mM EDTA, 1 mM 3-Isobutyl-1-methylxanthine, 125 mM KCl, 1 mM phenylmethysulfonylfluoride, 1 μg/ml aprotinin, and 1 μg/ml leupeptin. Resuspended platelets were sonicated on ice 3 times for 10 seconds each before centrifugation at 13,000×g for 5 minutes at 4° C. 100 μg lysate from each sample was incubated at 25° C. for 20 minutes with kinase buffer (150 μM Arg-Lys-Arg-Ser-Arg-Ala-Glu (SEQ ID NO: 17) peptide substrate (Bachem, King of Prussia, Pa.)), 10 mM HEPES pH 7.4, 35 mM β-glycerophosphate, 4 mM MgCl2, 5 μM Rp-8 pCPT-cAMPS, 0.5 mM EDTA, […] [γ-32P]ATPS (Sigma-Aldrich, St. Louis, Mo.)). Kinase assay reactions were terminated by spotting 50 μL of reaction mixture onto nitrocellulose. Nitrocellulose spots were washed 5 times each with 100 μL of 0.5% phosphoric acid before analysis with a scintillation counter.

Molecule: 3TSR: recombinant type 1 repeats of TSP1
- NO-stimulated proliferation (murine ASMC (CD47 null)): failed to inhibit
- NO-stimulated cGMP [1]: inhibited NO-stimulated cGMP responses in WT
- NO delay of thrombin-induced platelet aggregation (human platelets [2]; high shear, thrombin 0.2 U/ml): blocked the ability of NO to delay thrombin-induced aggregation
- NO delay of thrombin-induced platelet aggregation (human platelets [2]; static / low shear conditions): reversed the NO delay of aggregation under static conditions
- NO stimulated cGMP in platelets (human platelets [3]): inhibited NO stimulated cGMP flux

Molecule: CNC[C@H](O)c1ccc(O)c(O)c1 [epinephrine, Epinephrine hydrochloride]
- lethality ([4]; CD47 null animals, 0.05 μg/animal i.p.): fatal
- mean arterial pressure ([4]; TSP1 null animals, 0.05 μg/animal i.p.): did not show a significant increase
- mean pulse [4]: moderately increased
- mean arterial pressure ([4]; wild type animals, 0.05 μg/animal i.p.): expected increase in mean arterial pressure
- cutaneous perfusion ([5]; wild type and TSP1 null animals, epinephrine bolus): increased cutaneous perfusion

Molecule: COC(=O)[C@H](CC(C)C)NC(=O)c1ccc(NC[C@@H](N)CS)cc1-c1cccc2ccccc12 [GGTI-298, reference compound]
- platelet aggregation at high shear in the presence of NO (human platelets [2]; GGTI-298 preincubation): preferentially delayed platelet aggregation
- thrombin-stimulated adhesion of platelets (human platelets [6]): selective in adhesion assays for blocking thrombin-stimulated adhesion of platelets on fibrinogen
- Rap1 activation (GTP loading) (Rap1): inhibits basal and partially inhibits thrombin-stimulated Rap1 activation

Molecule: C[N+](C)(C)CCCCCC[N+](C)(C)C [hexamethonium, hexamethonium chloride]
- cutaneous perfusion and survival after autonomic blockade ([5]; wild type and TSP1 null animals under isoflurane, 30 μg/gram i.v.): decreases in cutaneous perfusion and eventual cardiovascular collapse and death

Molecule: CCN(CC)/[N+]([O-])=N/O.CCNCC [DEA/NO, diethylamine NONOate]
- magnitude of increased BOLD MRI signal ([7]; TSP1 null mice): 25%
- decreased BOLD signal ([7]; TSP null mice): 14%
- decreased BOLD signal ([7]; WT mice): 11%
- magnitude of increased BOLD MRI signal ([7]; WT mice): 15%
- 32P-incorporation into cGK-I selective peptide (cGK-I): strongly induced 32P-incorporation
- blood pressure response ([4]; TSP1 null versus wild type): significantly greater decreases in blood pressure measurements
- mean pulse [4]: tended to increase modestly
- blood pressure response ([4]; awake wild type and TSP1-null mice): significant decreases in systolic, diastolic and mean arterial pressure
- initial increase in cutaneous perfusion ([5]; rectal catheter bolus, core temperature 34.5° C.): significantly greater in TSP1 and CD47 null mice

Reference: patent US8865672B2, “Prevention of tissue ischemia and related methods” (The United States of America, as represented by the …, priority 2006, dated 2014)
